# Results as given in ChEMBL document CHEMBL1155131, “Discovery of conformationally rigid 3-azabicyclo[3.1.0]hexane-derived dipeptidyl peptidase-IV inhibitors” (Bioorg Med Chem Lett, 2008).
# Assays:
# Dipeptidyl peptidase 4 = Dipeptidyl peptidase 4 (Homo sapiens, UniProt P27487); assay: Inhibition of human plasma DPP4; assay type: cell-free
# Dipeptidyl peptidase 2 = Dipeptidyl peptidase 2 (Homo sapiens, UniProt Q9UHL4); assay: Inhibition of DPP2
# [1] = Antiproliferative activity against T cells; conditions: T-cell
# Prolyl endopeptidase = biological target: T1, Prolyl endopeptidase (Homo sapiens, UniProt P48147); assay: Inhibition of PPCE
# T1 sequence (P48147 whole entry): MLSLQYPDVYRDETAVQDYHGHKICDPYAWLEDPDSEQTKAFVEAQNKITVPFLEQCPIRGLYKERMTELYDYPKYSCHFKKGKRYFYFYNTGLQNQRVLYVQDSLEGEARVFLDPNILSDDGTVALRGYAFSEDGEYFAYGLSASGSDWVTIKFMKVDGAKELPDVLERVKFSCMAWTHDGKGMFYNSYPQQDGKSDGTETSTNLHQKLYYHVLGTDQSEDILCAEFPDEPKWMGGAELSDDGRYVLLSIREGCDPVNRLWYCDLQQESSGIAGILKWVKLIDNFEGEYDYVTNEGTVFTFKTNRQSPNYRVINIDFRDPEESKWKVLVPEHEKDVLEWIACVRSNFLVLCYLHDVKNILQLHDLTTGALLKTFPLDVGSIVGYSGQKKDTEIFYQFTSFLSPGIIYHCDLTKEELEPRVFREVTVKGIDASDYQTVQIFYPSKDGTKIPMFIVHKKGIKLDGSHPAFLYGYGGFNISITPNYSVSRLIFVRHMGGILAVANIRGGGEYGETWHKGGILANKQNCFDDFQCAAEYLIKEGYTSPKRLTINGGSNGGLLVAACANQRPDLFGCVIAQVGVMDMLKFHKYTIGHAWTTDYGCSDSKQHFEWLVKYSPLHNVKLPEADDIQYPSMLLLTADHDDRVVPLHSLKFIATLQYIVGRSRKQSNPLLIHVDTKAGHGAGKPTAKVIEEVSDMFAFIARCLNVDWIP
# Dipeptidyl peptidase 9 = Dipeptidyl peptidase 9 (Homo sapiens, UniProt Q86TI2); assay: Inhibition of DPP9
# Chain of Dipeptidyl peptidase 9 (Q86TI2 whole entry): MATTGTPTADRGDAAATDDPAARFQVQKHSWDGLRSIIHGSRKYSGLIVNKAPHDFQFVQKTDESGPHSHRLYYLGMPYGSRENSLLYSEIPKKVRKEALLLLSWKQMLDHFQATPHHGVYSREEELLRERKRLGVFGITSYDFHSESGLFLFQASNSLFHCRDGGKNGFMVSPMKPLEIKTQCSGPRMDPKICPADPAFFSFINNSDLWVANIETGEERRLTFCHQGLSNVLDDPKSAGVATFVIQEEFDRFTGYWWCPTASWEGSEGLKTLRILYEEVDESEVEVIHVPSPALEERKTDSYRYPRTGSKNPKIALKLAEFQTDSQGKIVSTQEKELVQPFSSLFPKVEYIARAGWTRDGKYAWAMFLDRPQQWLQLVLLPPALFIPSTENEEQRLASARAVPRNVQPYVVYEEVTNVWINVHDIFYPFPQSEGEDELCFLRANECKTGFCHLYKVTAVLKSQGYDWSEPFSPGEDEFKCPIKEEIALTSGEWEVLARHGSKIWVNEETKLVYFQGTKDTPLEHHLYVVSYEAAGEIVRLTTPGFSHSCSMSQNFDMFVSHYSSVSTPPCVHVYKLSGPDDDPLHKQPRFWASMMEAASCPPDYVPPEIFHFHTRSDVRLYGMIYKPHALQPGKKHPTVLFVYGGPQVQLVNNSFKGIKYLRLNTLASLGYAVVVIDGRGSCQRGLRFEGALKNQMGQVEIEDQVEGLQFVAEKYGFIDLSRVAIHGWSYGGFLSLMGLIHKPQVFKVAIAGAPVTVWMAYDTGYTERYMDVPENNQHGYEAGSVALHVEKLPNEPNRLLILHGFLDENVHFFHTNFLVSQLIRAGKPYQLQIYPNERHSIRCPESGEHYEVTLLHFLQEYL
# Dipeptidyl peptidase 8 = Dipeptidyl peptidase 8 (Homo sapiens, UniProt Q6V1X1); assay: Inhibition of DPP8
# Chain of Dipeptidyl peptidase 8 (Q6V1X1 whole entry): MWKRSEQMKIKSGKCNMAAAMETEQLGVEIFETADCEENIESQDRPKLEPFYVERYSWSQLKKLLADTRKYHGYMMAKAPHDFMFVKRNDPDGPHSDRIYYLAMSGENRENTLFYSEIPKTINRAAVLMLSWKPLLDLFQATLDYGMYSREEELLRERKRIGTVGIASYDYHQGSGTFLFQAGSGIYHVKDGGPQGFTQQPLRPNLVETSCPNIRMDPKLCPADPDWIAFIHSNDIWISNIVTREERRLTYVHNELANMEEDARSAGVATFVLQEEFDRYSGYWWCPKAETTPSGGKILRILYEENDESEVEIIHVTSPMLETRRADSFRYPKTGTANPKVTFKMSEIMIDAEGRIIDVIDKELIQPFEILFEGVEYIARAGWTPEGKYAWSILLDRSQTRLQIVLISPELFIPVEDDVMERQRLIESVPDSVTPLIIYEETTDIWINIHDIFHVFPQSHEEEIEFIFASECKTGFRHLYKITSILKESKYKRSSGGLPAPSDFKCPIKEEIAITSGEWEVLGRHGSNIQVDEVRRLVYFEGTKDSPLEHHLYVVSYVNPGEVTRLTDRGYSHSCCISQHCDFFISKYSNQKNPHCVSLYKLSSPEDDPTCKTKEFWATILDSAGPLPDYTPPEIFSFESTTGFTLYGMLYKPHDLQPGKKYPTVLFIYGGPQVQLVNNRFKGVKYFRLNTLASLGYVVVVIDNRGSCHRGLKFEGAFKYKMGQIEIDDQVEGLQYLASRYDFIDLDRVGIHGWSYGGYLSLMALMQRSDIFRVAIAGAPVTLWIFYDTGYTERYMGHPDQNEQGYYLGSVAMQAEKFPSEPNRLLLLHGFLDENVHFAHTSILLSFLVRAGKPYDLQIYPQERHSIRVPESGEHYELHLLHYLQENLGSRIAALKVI
# Chain of Dipeptidyl peptidase 4 (P27487 whole entry): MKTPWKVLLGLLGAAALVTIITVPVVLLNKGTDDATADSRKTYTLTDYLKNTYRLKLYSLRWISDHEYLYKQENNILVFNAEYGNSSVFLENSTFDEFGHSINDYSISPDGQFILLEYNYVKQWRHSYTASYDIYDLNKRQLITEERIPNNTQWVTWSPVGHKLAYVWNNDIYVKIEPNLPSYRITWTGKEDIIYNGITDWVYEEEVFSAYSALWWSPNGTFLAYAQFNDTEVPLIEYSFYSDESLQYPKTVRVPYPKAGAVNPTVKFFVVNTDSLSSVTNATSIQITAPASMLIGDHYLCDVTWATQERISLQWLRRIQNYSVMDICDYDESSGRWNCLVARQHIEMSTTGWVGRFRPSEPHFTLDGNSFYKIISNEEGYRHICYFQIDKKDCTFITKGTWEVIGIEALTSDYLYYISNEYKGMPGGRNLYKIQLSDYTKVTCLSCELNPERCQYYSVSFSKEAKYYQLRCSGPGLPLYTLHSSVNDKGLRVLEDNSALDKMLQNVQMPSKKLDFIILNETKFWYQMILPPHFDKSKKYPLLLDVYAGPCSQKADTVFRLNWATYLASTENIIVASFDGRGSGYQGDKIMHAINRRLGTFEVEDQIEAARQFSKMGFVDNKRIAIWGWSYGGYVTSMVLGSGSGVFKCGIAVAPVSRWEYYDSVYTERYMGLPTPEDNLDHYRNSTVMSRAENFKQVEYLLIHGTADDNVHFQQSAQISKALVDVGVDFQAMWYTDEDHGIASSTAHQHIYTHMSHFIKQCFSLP
SMILES,IC50 (Dipeptidyl peptidase 2),IC50 (Prolyl endopeptidase),also measured
N#Cc1ccc(N2C[C@@H]3[C@H](C2)[C@H]3NCC(=O)N2CCSC2)nc1,,,IC50 (Dipeptidyl peptidase 4): > 10 µM
N#Cc1ccc(N2C[C@@H]3[C@H](C2)[C@H]3NCC(=O)N2C[C@@H](F)C[C@H]2C#N)c(Cl)c1,1 µM,,
N#Cc1ccc(N2C[C@@H]3[C@H](C2)[C@H]3NCC(=O)N2C[C@@H](F)C[C@H]2C#N)cc1,18.1 µM,,
CC(=O)c1ccc(N2C[C@@H]3[C@H](C2)[C@H]3NCC(=O)N2C[C@@H](F)C[C@H]2C#N)cc1,9 µM,,IC50 [1]: > 10 µM
N#C[C@@H]1C[C@H](F)CN1C(=O)CN[C@H]1[C@@H]2CN(c3nccs3)C[C@@H]21,11 µM,> 100 µM,
N#C[C@@H]1C[C@H](F)CN1C(=O)CN[C@H]1[C@@H]2CN(c3ccc(C(N)=O)cc3)C[C@@H]21,21.8 µM,,IC50 [1]: > 10 µM
N#Cc1cc(F)ccc1N1C[C@@H]2[C@H](C1)[C@H]2NCC(=O)N1C[C@@H](F)C[C@H]1C#N,> 10 µM,> 10 µM,
N#C[C@@H]1C[C@H](F)CN1C(=O)CN[C@H]1[C@@H]2CN(c3cnc4ccccc4n3)C[C@@H]21,0.226 µM,> 10 µM,
N#Cc1c(F)cc(N2C[C@@H]3[C@H](C2)[C@H]3NCC(=O)N2C[C@@H](F)C[C@H]2C#N)cc1F,10.9 µM,9.7 µM,
N#Cc1ccc(N2C[C@@H]3[C@H](C2)[C@H]3NCC(=O)N2C[C@@H](F)C[C@H]2C#N)cc1F,1.2 µM,9.94 µM,IC50 [1]: > 10 µM
N#C[C@@H]1C[C@H](F)CN1C(=O)CN[C@H]1[C@@H]2CN(c3ncccn3)C[C@@H]21,16.5 µM,,IC50 (Dipeptidyl peptidase 9): > 100 µM
N#C[C@@H]1C[C@H](F)CN1C(=O)CN[C@H]1[C@@H]2CN(c3ccc(Cl)cn3)C[C@@H]21,8.75 µM,9.04 µM,IC50 [1]: > 10 µM
N#Cc1c(F)cccc1N1C[C@@H]2[C@H](C1)[C@H]2NCC(=O)N1C[C@@H](F)C[C@H]1C#N,> 10 µM,> 10 µM,IC50 (Dipeptidyl peptidase 8): > 10 µM
N#Cc1cccnc1N1C[C@@H]2[C@H](C1)[C@H]2NCC(=O)N1C[C@@H](F)C[C@H]1C#N,1.34 µM,,IC50 [1]: > 10 µM
N#Cc1ccc(N2C[C@@H]3[C@H](C2)[C@H]3NCC(=O)N2C[C@@H](F)C[C@H]2C#N)c(F)c1,2.76 µM,> 10 µM,
N#Cc1cc(C(F)(F)F)ccc1N1C[C@@H]2[C@H](C1)[C@H]2NCC(=O)N1C[C@@H](F)C[C@H]1C#N,4.33 µM,> 100 µM,
CCOC(=O)c1ccc(N2C[C@@H]3[C@H](C2)[C@H]3NCC(=O)N2C[C@@H](F)C[C@H]2C#N)cc1,9.88 µM,,
N#Cc1c(F)cc(F)cc1N1C[C@@H]2[C@H](C1)[C@H]2NCC(=O)N1C[C@@H](F)C[C@H]1C#N,3.9 µM,8.7 µM,
N#C[C@@H]1C[C@H](F)CN1C(=O)CN[C@H]1[C@@H]2CN(c3nc4ccccc4o3)C[C@@H]21,5.1 µM,> 100 µM,
N#Cc1ccccc1N1C[C@@H]2[C@H](C1)[C@H]2NCC(=O)N1C[C@@H](F)C[C@H]1C#N,0.406 µM,> 10 µM,

SMILES,IC50 (Dipeptidyl peptidase 2),IC50 (Prolyl endopeptidase),also measured
NCC[C@H](N)C(=O)N1CCCCC1,0.163 µM,,
N[C@@H](CCCCNC(=O)OCc1ccc([N+](=O)[O-])cc1)C(=O)N1CCCC1,,,IC50 [1]: 0.839 µM
CNC(=O)c1ccc(N2C[C@@H]3[C@H](C2)[C@H]3NCC(=O)N2C[C@@H](F)C[C@H]2C#N)cc1,,,IC50 [1]: > 10 µM
N#C[C@@H]1C[C@H](F)CN1C(=O)CN[C@H]1[C@@H]2CN(c3nccc(C(F)(F)F)n3)C[C@@H]21,2.2 µM,> 100 µM,
N#Cc1c(Cl)cccc1N1C[C@@H]2[C@H](C1)[C@H]2NCC(=O)N1C[C@@H](F)C[C@H]1C#N,0.096 µM,,IC50 (Dipeptidyl peptidase 8): > 10 µM; IC50 [1]: > 10 µM
N#Cc1c(N2C[C@@H]3[C@H](C2)[C@H]3NCC(=O)N2C[C@@H](F)C[C@H]2C#N)cccc1C(F)(F)F,1.3 µM,> 10 µM,
N#C[C@@H]1CCCN1C(=O)CNC12CC3CC(CC(O)(C3)C1)C2 [VILDAGLIPTIN],,,IC50 [1]: > 10 µM
N#Cc1cccc(F)c1N1C[C@@H]2[C@H](C1)[C@H]2NCC(=O)N1C[C@@H](F)C[C@H]1C#N,1.3 µM,> 10 µM,
N#Cc1cc(F)cc(N2C[C@@H]3[C@H](C2)[C@H]3NCC(=O)N2C[C@@H](F)C[C@H]2C#N)c1,1.8 µM,9.15 µM,
N#C[C@@H]1C[C@H](F)CN1C(=O)CN[C@H]1[C@@H]2CN(c3ccccn3)C[C@@H]21,10.8 µM,1.42 µM,IC50 [1]: > 10 µM
N#Cc1ccc(N2C[C@@H]3[C@H](C2)[C@H]3NCC(=O)N2C[C@@H](F)C[C@H]2C#N)cc1Cl,0.907 µM,,
N#C[C@@H]1C[C@H](F)CN1C(=O)CN[C@H]1[C@@H]2CN(c3ccc(C(=O)NC4CC4)cc3)C[C@@H]21,,,IC50 [1]: > 10 µM
N#C[C@@H]1C[C@H](F)CN1C(=O)CN[C@H]1[C@@H]2CN(c3ccc([N+](=O)[O-])cn3)C[C@@H]21,13 µM,8.5 µM,
N#C[C@@H]1C[C@H](F)CN1C(=O)CN[C@H]1[C@@H]2CN(c3nc4ccccc4s3)C[C@@H]21,5.1 µM,> 10 µM,
N#Cc1ccc(N2C[C@@H]3[C@H](C2)[C@H]3NCC(=O)N2C[C@@H](F)C[C@H]2C#N)nc1,11 µM,> 100 µM,
N#C[C@@H]1C[C@H](F)CN1C(=O)CN[C@H]1[C@@H]2CN(c3ncccc3[N+](=O)[O-])C[C@@H]21,6.42 µM,> 10 µM,
N#C[C@@H]1C[C@H](F)CN1C(=O)CN[C@H]1[C@@H]2CN(c3ccc(C(F)(F)F)cn3)C[C@@H]21,4 µM,> 100 µM,
N#Cc1ccc(N2C[C@@H]3[C@H](C2)[C@H]3NCC(=O)N2C[C@@H](F)C[C@H]2C#N)c(C(F)(F)F)c1,1 µM,2.1 µM,
N#Cc1ccc(N2C[C@@H]3[C@H](C2)[C@H]3NCC(=O)N2CC(F)(F)C[C@H]2C#N)nc1,2.8 µM,,
